Experimental data from a melting point compilation (Tetko et al.; mined from patent text by program, amines drawn as free bases though some values may be those of a salt).

| Compound | melting point [°C] |
| --- | --- |
| Cc1ccc(-c2c(C(=O)NCc3cc(C(F)(F)F)cc(C(F)(F)F)c3)n(CCC(C)CO)c(=O)c3ncccc23)cc1 (racemic) | 129 to 130 |
| CCOC(=O)c1c(C)cc2cnc(-c3ccccc3Cl)nc2c1C | 69.5 to 70.5 |
| COc1ccc(-c2cnc(-c3ccncc3)o2)cc1 | 105 to 107 |
| COC(=O)c1ccccc1Oc1ccc(C)cc1 | 31 to 34 |
| Cc1c(C)c2c(c(C)c1O)C(=O)C(C)(C)O2 | 142 to 144 |
| CC1Cc2cc(C3C(=O)Oc4c3cc(C(C)(C)C)cc4C(C)(C)C)ccc2O1 (stereo not given) | 136 to 152 |
| Cc1cnc(N2CCNCC2)c2ccoc12 | 112 |
| Cc1coc(-c2ccc(-c3ccccc3S(=O)(=O)Nc3onc(C)c3C)cc2)n1 | 85 to 95 |
| O=C(O)CCCCOc1ccc2oc3ccccc3c(=O)c2c1 | 151 to 152 |
| Cc1cccc(Nc2cc(Nc3cccc(OCCCN(C)C)c3)ncn2)c1 | 142 to 144 |
| Cn1c(=O)c(-c2ccc(Cl)cc2Cl)cc2c3cc(-c4nc(CN5CCCC5)cs4)ccc3n(C)c21 | 222 to 226 |
| CCSc1ccc(OC(C)c2ccnc3ncnn23)cc1 (stereo not given) | 65 to 67 |
| CNC(=S)SCCC(=O)N1CCC[C@H]1C(=O)O | 127 to 129 |
| CCc1nc(/C=C/c2cn(-c3ccccc3)nc2OCc2ccc(OCc3nc(-c4ccc(C(=O)O)s4)oc3C)c(OC)c2)cs1 | 150 to 151 |
| Cc1[nH]c(=O)c(C#N)c2c1CC(c1ccccc1)CC2 (stereo not given) | > 290 |
| CNc1nc(-c2ccc(Cl)c(Cl)c2)cs1 | 220 to 221 |
| CN1CC[C@@H](c2c(O)cc(O)c3c(=O)cc(-c4cccc(Cl)c4)oc23)[C@@H]1CO | 146 to 147 |
| Cc1ccc(S(=O)(=O)OCC2CCc3sc(C)nc3C2)cc1 (stereo not given) | 105 to 106 |
| N=C(NO)c1nc2cnc3ccc(Cl)cc3c2n1-c1ccccc1Cl | 265 to 267 |
| COc1ccc(N2CCCn3c2nc2c(Cl)ccc(C(O)(C4CC4)C4CC4)c23)c(C)n1 | 208 to 210 |
| CS(=O)(=O)Nc1cc([C@@H](O)CNC2CCN(c3ccc(NC(=O)c4ccc5c(c4)OCO5)cc3)CC2)ccc1O | 104 to 113 |
| COc1ccc(S(=O)(=O)Nc2ccccc2NC(=O)c2cccnc2C)cc1 | 148 to 149 |
| Cc1cc(SCC#Cc2ccc(Cl)cc2)ccc1OCC(=O)O | 106 to 108 |
| CSc1nn2c(N)cc(N3CCN(C)CC3)nc2c1S(=O)(=O)c1ccccc1 | > 230 |
| COC(C)(C)C(=O)C(Oc1ccc(I)cc1)n1cncn1 (stereo not given) | 81.5 to 82.5 |

| Compound | melting point [°C] |
| --- | --- |
| CS(=O)(=O)c1ccc(-c2[nH]c(Cl)cc2-c2ccc(F)cc2)cc1 | 206 to 208 |
| O=c1[nH]cccc1-c1ccccc1 | 223 to 229 |
| O=CC(=Cc1ccc(OCc2ccc(Cl)cc2)cc1)C(C=O)=Cc1ccc(OCc2ccc(Cl)cc2)cc1 | 208 to 209 |
| C=CCNc1ccc(C(=O)OC)cc1 | 71 to 73 |
| CN(C)Cc1cnn(C)c1-c1ccc(Cl)cc1C(O)c1ccccc1F (stereo not given) | 125 to 127 |
| O=Cc1ccc(OCCCc2ccccc2)c([N+](=O)[O-])c1 | 82.5 |
| N#Cc1ccc(N2c3cc(Cl)ccc3C(=O)OC23CCNCC3)cc1 | 183 to 185 |
| O=C1CCC2(CCCc3ccccc32)CC1 | 109 to 111 |
| COc1cc(CCCC2OC(=O)NC2=O)ccc1OCc1csc(CCc2ccccc2)n1 (stereo not given) | 136 to 137 |
| Cc1nc(N)nc(N)c1-c1cc(NS(C)(=O)=O)ccc1Cl | 234 to 240 |
| [N-]=[N+]=NCc1cc(C(N)C(=O)O)ccc1O (stereo not given) | > 300 |
| COC(=O)c1ccc(-c2nc(-c3ccc(Cl)cc3)no2)c(N)c1 | 227 to 228 |
| O=C1Nc2ccccc2SCC1c1ccc(Cl)cc1 (stereo not given) | 180 |
| COC(=O)Nc1coc2cc(NS(C)(=O)=O)c(Oc3ccccc3)cc2c1=O | 233 to 235 |
| Clc1ccc(N2CCN(Cc3n[nH]c4ccccc34)CC2)nc1 | 203 to 204 |
| O=C1NCCc2sc3ccccc3c21 | 143 to 144 |
| CCCc1nc(C=NNC(=S)SC)c[nH]1 | 95 to 104 |
| COc1ccc(O)c(CNc2ccccc2)c1 | 82 to 84 |
| CCN(CC)CCCOc1ccc(NC(=O)c2ccccc2)cc1NC(=O)c1ccccc1 | 139 to 140 |
| COc1ccccc1Nc1ncc(C(=O)O)c(=O)[nH]1 | 251 to 253 |
| CC(=O)Nc1ccc(Sc2nc(Nc3cc(C)n[nH]3)cc(-c3ccccc3C)n2)cc1 | 212 to 214 |
| Fc1ccc(F)c(C(Sc2ccc(Cl)cc2)c2cc(Cl)ncc2Cl)c1 (stereo not given) | 128 to 129 |
| CC(=O)Nc1ccc(O)c(C)c1C | 184 to 185 |
| CC12CC(F)C3C4CCC(=O)C=C4CC(CCCCCBr)C3C1CCC2=O (stereo not given) | 75 to 76 |
| Nc1ncc(-c2cccc(Cl)c2Cl)nc1C(=O)Nc1cccnc1 | 239 to 241 |

| Compound | melting point [°C] |
| --- | --- |
| COc1ccc(C2CC(n3cncn3)c3ccccc3N2)cc1 (stereo not given) | 170 to 172 |
| COc1ccc(-c2nc(CCl)nc3cc(OC)c(OC)cc23)cc1OC | 183 to 184 |
| CO[C@@H]1COCC[C@]1(OC)c1cccc(OCc2ccc3ccccc3c2)c1 (racemic) | 86 to 88 |
| CCCCCCCNC(=O)N(C)c1cccc(-c2ccc(CCC(=O)O)cn2)c1 | 118 |
| c1ccc2c3c([nH]c2c1)C(c1ccc2c(c1)OCO2)NCC3 (stereo not given) | 173 |
| O=C1CCC2=C1C(c1cccc(Br)c1)C1=C(CCS1)N2 (stereo not given) | 246 |
| CCCc1c(O)ccc2c(=O)cc(/C=C/C(=O)OCC)oc12 | 203 to 204 |
| CC(O)Cc1ccc(-c2ccc3cc(C(=O)O)ccc3c2)cc1C12CC3CC(CC(C3)C1)C2 (stereo not given) | 282 |
| COc1cc([N+](=O)[O-])ccc1C(=O)N1CCCCC1 | 104 |
| O=C(Nc1ccc(S(=O)(=O)c2ccc([N+](=O)[O-])cc2)cc1)N[C@@H](Cc1ccc(NC(=O)c2c(Cl)cccc2Cl)cc1)C(=O)O | 223 |
| Cc1nc(OC(C)C(=O)NC(C)(C#N)C(C)(C)C)c(Cl)c(C(F)(F)F)n1 (stereo not given) | 137 to 139 |
| Cc1nc(N)ccc1-c1ccccc1 | 110 to 113 |
| Fc1cccc(OC2CN(C3CCC(c4c[nH]c5cc(F)ccc45)CC3)C2)c1 (stereo not given) | 117 to 123 |
| O=C(O)c1ccc(N2CCOCC2)c(NC(=O)C(CS)Cc2ccccc2)c1 (stereo not given) | 218 to 222 |
| CCOCc1nc2c(N)nc3ccccc3c2n1Cc1cc(-c2cccnc2)no1 | 240 to 242 |
| CCCC(=O)NCCCn1c(C)nc2c(N)nc3ccccc3c21 | 222 to 223 |
| CC(C)C[C@H](NC(=O)OCc1ccccn1)C(=O)N[C@@H](Cc1ccccc1)C(=O)CSCc1ccco1 | 93 to 94 |
| N#CC(=C(Nc1cc(C(F)(F)F)cc(C(F)(F)F)c1)NC1CCCC1)S(=O)(=O)c1ccc(Cl)cc1 | 199 to 200 |
| COc1ccc(N2CCN(c3c(C)c(C)c4c(c3C)CC3(CCCC3)O4)CC2)cc1 | 137 to 139 |
| Clc1cc2cc[nH]c2c(Cl)c1Cl | 97.5 to 98 |
| CC(C)(C)C(=O)c1c[nH]c2ncc(-c3ccc(N4CCN(CCO)CC4)cc3)nc12 | 211 to 213 |
| CC(C)(C)c1ccc(NC(=O)NCc2ccc3c(c2)CN(C2CCC(=O)NC2=O)C3=O)cc1 (stereo not given) | 254 to 256 |
| CC(C)(CNc1ccnc2cc(Cl)ccc12)NCc1ccncc1 | 157 to 159 |
| O=C(c1cccc(O)c1)c1cccc(Cl)c1 | 104 |
| CCCCCCCCCCCCCCCCOC(=O)c1cc(C(=O)OCCCCCCCCCCCCCCCC)cc(S(=O)(=O)Cl)c1 | 48 to 50 |

| Compound | melting point [°C] |
| --- | --- |
| Cc1c(F)c(F)cc2c(=O)c(C(=O)O)cn(-c3cc(O)c(F)cc3F)c12 | 270 to 278 |
| Cc1cc(C(=O)c2ccc(F)c(C)c2)ccc1F | 128 to 130 |
| Cc1cc(CCCCCOc2c(Cl)cc(C3=NCCC3)cc2Cl)on1 | 57 to 59 |
| CC(C)n1c2ccccc2c2sccc(=O)c21 | 154 to 156 |
| Clc1ccccc1-c1n[nH]c(SCc2ccccc2)n1 | 84 to 86 |
| CCCCOC(=O)C(CC(C)C)NC(=O)c1cc([N+](=O)[O-])cc([N+](=O)[O-])c1 (stereo not given) | 95 to 98 |
| CCNC(=O)C1CCN(C(=O)c2cc(-c3ccccc3)c(=O)n3c2-c2sccc2CC3)CC1 | 134 to 135 |
| O=c1cc(-c2ccncc2)nc2n1CC(O)CN2 (stereo not given) | 305 to 307 |
| CCCCCCCCCCCCCCCCCCN1C(=O)c2ccccc2C1=O | 78 to 79 |
| CCOc1ccc(-c2nc(C)c(C(=O)O)s2)cc1Cl | 219 to 220 |
| CCN(CC)c1ccc2nc3c4ccccc4c(=Nc4nc5ccc(OC)cc5s4)cc-3oc2c1 | 197 to 198 |
| CC1CN=C2C=CC(c3cccnc3)=NN21 (stereo not given) | 104 to 105 |
| CCCN(CCC)CC(=O)Nc1ncc(Oc2cc(I)c(OC)cc2C(C)C)c(N)n1 | 129 to 131 |
| COc1ccc(C(=O)OC2CCN(Cc3ccccc3)CC2)cc1 | 55 to 56 |
| CCOC(=O)C1=C(C)NC(C(OC)OC)=C(C(=O)OC)C1c1ccccc1[N+](=O)[O-] (stereo not given) | 122 to 124 |
| COc1ccc(CSc2nnc(-c3ccn4ncnc4c3)o2)cc1C(F)(F)F | 178 to 179 |
| Nc1c(Cl)cnc(OCCO)c1Cl | 77.5 to 81 |
| Cc1oc(C(C)(C)C)nc1COc1ccc(CC(OC(C)C)C(=O)O)c2sccc12 (stereo not given) | 166 to 167 |
| O=C(O)c1ccc(OCCNC(=O)C2Cc3ccccc3N2S(=O)(=O)c2ccc(-c3ccc(F)cc3OC(F)F)cc2)cc1 (stereo not given) | 70 |
| C#Cc1ccc(Nc2c(C(=O)NOCCO)ccc(F)c2F)c(F)c1 | 162 |
| CCOC(=O)Cn1c(-c2cc3c(cc2[N+](=O)[O-])OCO3)nc2ccccc21 | 136 to 138 |
| Cc1cn(C2CC(O)C(CNCc3ccc(Cl)cc3)O2)c(=O)[nH]c1=O (stereo not given) | 179 to 180 |
| Cn1cccc1C(=O)NN(C(=O)c1ccccc1)C(C)(C)C | 182 to 185 |
| CC(=O)N1CCc2c([nH]c3ccccc23)C1 | 240 to 241 |
| CC(C)(C)OC(=O)NCCC[C@@H](CO)NC(=O)OCC1c2ccccc2-c2ccccc21 | 107 to 109 |
